Counter-ions that a name gives are not always drawn. Starred links: 1 amine or outer side, 2 acyl side, 3 side chain; linkers in the order of their positions; H or OH if unused. Positions of bridges follow the written chain, without caps; N, C: chain ends. Non-standard residues stand in square brackets, D forms with d. Residues, ends and D or L forms follow the SMILES beside them. Chains are numbered I, II in the order given. *: point of attachment. TATA = O=C(CC[*:1])N1CN(C(=O)CC[*:2])CN(C(=O)CC[*:3])C1; Dolaproine = CO[C@@H]([C@@H]1CCCN1)[C@@H](C)C(=O)O; Dil = CC[C@H](C)[C@H](NC)[C@@H](CC(=O)O)OC; 1Nal = N[C@@H](Cc1cccc2ccccc12)C(=O)O; X2 = O=C(CCCC(=O)[*:2])NCCC(=O)[*:1]; PABC = O=C(OCc1ccc(N[*:1])cc1)[*:2]; X1 = C[C@@H](N*)[C@@H](O)c1ccccc1; Hyp = O=C(O)[C@@H]1C[C@@H](O)CN1; hArg = N=C(N)NCCCC[C@H](N)C(=O)O; Cit = NC(=O)NCCC[C@H](N)C(=O)O; Pen = CC(C)(S)[C@H](N)C(=O)O; NMeV = CN[C@H](C(=O)O)C(C)C; hCys = N[C@@H](CCS)C(=O)O; Sar = CNCC(=O)O
Columns and labels:
Human Nectin-4 = molecular target: T1, Human Nectin-4 (Homo sapiens, UniProt Q96NY8); test: Binding capacity to Nectin-4 protein (SPR, Biacore 8K)
T1 construct: purchased GE Healthcare 1006-72
T1 sequence (Q96NY8 32-510): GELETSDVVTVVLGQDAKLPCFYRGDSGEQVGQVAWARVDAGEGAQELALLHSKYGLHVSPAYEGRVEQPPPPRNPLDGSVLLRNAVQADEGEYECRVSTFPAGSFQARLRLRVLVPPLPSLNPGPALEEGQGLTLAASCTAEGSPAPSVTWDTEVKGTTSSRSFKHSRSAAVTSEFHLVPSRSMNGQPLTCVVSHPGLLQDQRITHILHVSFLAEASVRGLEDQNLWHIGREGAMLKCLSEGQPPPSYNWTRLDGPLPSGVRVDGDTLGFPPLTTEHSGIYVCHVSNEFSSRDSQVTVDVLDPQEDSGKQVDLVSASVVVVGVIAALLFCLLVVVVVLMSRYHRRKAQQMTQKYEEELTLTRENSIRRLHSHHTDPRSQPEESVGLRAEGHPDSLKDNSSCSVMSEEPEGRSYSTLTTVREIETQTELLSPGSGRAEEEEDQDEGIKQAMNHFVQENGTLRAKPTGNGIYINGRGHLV
Protocol: Test Example 1. Binding Capacity Test of the Compounds of the Present Invention to Nectin-4 Protein
To detect the affinity of the compound to be tested to the target protein Nectin-4 using the SPR method.
• Biacore 8K (GE Healthcare) • 96-well Plate (Cat #650101, greiner bio-one) • CM5 chip (Cat #BR-1005-30, GE Healthcare) • Amine Coupling Kit (Cat #BR-1000-50, GE Healthcare) • EDC • NHS • 1 M ethanolamine • 10 mM sodium acetate pH 4.5 (Cat #BR-1003-50, GE Healthcare) • DMSO (Cat #D4540, Sigma) • P20 (Cat #BR-1000-54, GE Healthcare) • PBS (Cat #BR-1006-72, GE Healthcare) • Nectin-4 (Cat #1006-72, GE Healthcare) 3. Experimental Protocol
In this experiment, the amino coupling method was used. The target protein Nectin-4 was directly immobilized on the CM5 chip using Biacore 8K. […] The final data were subjected to Kinetics fitting analysis based on a 1:1 model using Biacore Insight Evaluation Software (V 2.0.15.12933).
1) Preparation of the buffer: 10 mM PBS, pH 7.4, 137 mM NaCl, 2.7 mM KCl, 5% DMSO, and 0.05% P20.
2) Activation of the CM5 chip: The CM5 chip was activated with 400 mM EDC and 100 mM NHS at a flow rate of 10 μL/min for 420 seconds.
3) Coupling of the target protein: The target protein was diluted to 10 μg/mL with 10 mM sodium acetate (pH 4.5) and coupled at a flow rate of 10 μL/min for 284 s. The 1 #, 2 #, and 3 #channels on the chip were used in the experiment, and the coupling results were 1639.9RU, 1747.8RU, and 1702.2RU, respectively.
4) Blocking of the CM5 chip: The CM5 chip was blocked with 1 M ethanolamine at a flow rate of 10 μL/min for 420 seconds.
5) Analyte concentration: The compound to be tested was diluted with the buffer. The compound to be tested was diluted from 100 nM to 0.78 nM in a 2-fold gradient.
6) Sample injection analysis: Each concentration of the working solution of the compound to be tested corresponded to one cycle, with a flow rate of 30 μL/min for binding for 180 seconds and dissociating for 180 seconds. The last cycle was a 5% DMSO solvent correction cycle.
7) All results were subjected to kinetics fitting analysis based on a 1:1 model. […]

[1] = Pharmacokinetic analysis in rat plasma; format: in vivo, SD rats
Protocol: Test Example 5: Pharmacokinetic Analysis of the Compounds of the Present Invention in Rat Plasma
To test the pharmacokinetics of the compounds of the present invention in SD rats.
(§1) The pharmacokinetic characteristics of the compound after intravenous injection were tested in rats according to a standard protocol. The compound to be tested was formulated into a clear solution using 25 mM L-histidine (pH=7) in 10% sucrose as a vehicle. Two rats were given a single intravenous injection of 3 mg/kg of the compound to be tested. Whole blood was collected at time points of 0.083, 0.25, 0.5, 1, 2, 4, 8, and 24 hours after administration to get plasma. The concentration of the compound of the present invention and the concentration of its potential metabolite MMAE were analyzed by the LC-MS/MS method, and the pharmacokinetic parameters were calculated by Phoenix WinNonlin software.

[2] = Pharmacokinetic analysis in Cynomolgus macaque plasma; format: in vivo; details: Cynomolgus macaques, single IV 1 mg/kg of the compound
Protocol: Test Example 6: Pharmacokinetic Analysis in Cynomolgus Macaque Plasma
To test the pharmacokinetics of the compounds of the present invention in Cynomolgus macaques.
as §1, with “tested” for “tested in rats”, “standard protocol in Cynomolgus macaques.” for “standard protocol.”, “vehicle. Cynomolgus macaques” for “vehicle. Two rats”, “of 1” for “of 3”, “compound to be tested” for “compound of the present invention”

[3] = metabolite MMAE in SD rat plasma after single IV 3 mg/kg acetate salt of PDC_2

| SMILES | Kd (Human Nectin-4) | exposure of metabolite MMAE relative to exposure of the compound ([1]; SD rats, single IV 3 mg/kg) | AUC0-last [1, 3] | Cmax [1, 3] | MMAE release in blood [2] |
| --- | --- | --- | --- | --- | --- |
| CC[C@H](C)[C@@H]([C@@H](CC(=O)N1CCC[C@H]1[C@H](OC)[C@@H](C)C(=O)N[C@H](C)[C@@H](O)c1ccccc1)OC)N(C)C(=O)[C@@H](NC(=O)[C@H](C(C)C)N(C)C(=O)OCc1ccc(NC(=O)[C@H](CCCNC(N)=O)NC(=O)[C@@H](NC(=O)CCCC(=O)NCCC(=O)N(C)CC(=O)N(C)CC(=O)N(C)CC(=O)N(C)CC(=O)N(C)CC(=O)N(C)CC(=O)N(C)CC(=O)N(C)CC(=O)N(C)CC(=O)N(C)CC(=O)N[C@H]2CCCCNC(=O)C[C@@H](C(=O)N[C@H]3CSCCC(=O)N4CN5CN(C4)C(=O)CCSC(C)(C)[C@H](NC(=O)[C@@H](CC(=O)O)NC(=O)[C@H](Cc4cccc6ccccc46)NC(=O)[C@@H]4CCCN4C3=O)C(=O)N[C@@H](CCSC)C(=O)N[C@@H](CCCCNC(=N)N)C(=O)N[C@@H](CC(=O)O)C(=O)N[C@@H](Cc3c[nH]c4ccccc34)C(=O)N[C@@H](CO)C(=O)N[C@@H]([C@@H](C)O)C(=O)N3CCC[C@H]3C(=O)N3C[C@H](O)C[C@H]3C(=O)N[C@@H](Cc3c[nH]c4ccccc34)C(=O)N[C@H](C(N)=O)CSCCC5=O)NC(=O)[C@H](CCCCNC(=N)N)NC2=O)C(C)C)cc1)C(C)C [Acetate salt of PDC_1] (I: [Sar][Sar][Sar][Sar][Sar][Sar][Sar][Sar][Sar][Sar]K[hArg]DCP[1Nal][dD][Pen]M[hArg]DWSTP[Hyp]WC-NH2 / II: V[Cit][PABC][NMeV]V[Dil][Dolaproine]-X1; lactam I:11-I:13; linker I:14-I:18-I:28 via TATA; linker I:N-II:N via X2) | 1.4 nM | – | – | – | – |
| CC[C@H](C)[C@@H]([C@@H](CC(=O)N1CCC[C@H]1[C@H](OC)[C@@H](C)C(=O)N[C@H](C)[C@@H](O)c1ccccc1)OC)N(C)C(=O)[C@@H](NC(=O)[C@@H](NC)C(C)C)C(C)C [MMAE, monomethyl auristatin E] (H-[NMeV]V[Dil][Dolaproine]-X1) | – | about 1/40 | 0.11 µM·h | 70 nM | lower MMAE release in blood than a detection limit |
| CC[C@H](C)[C@@H]([C@@H](CC(=O)N1CCC[C@H]1[C@H](OC)[C@@H](C)C(=O)N[C@H](C)[C@@H](O)c1ccccc1)OC)N(C)C(=O)[C@@H](NC(=O)[C@H](C(C)C)N(C)C(=O)OCc1ccc(NC(=O)[C@H](CCCNC(N)=O)NC(=O)[C@@H](NC(=O)CCCC(=O)NCCC(=O)N(C)CC(=O)N(C)CC(=O)N(C)CC(=O)N(C)CC(=O)N(C)CC(=O)N(C)CC(=O)N(C)CC(=O)N(C)CC(=O)N(C)CC(=O)N(C)CC(=O)N[C@H]2CCCCNC(=O)C[C@@H](C(=O)N[C@H]3CSCCC(=O)N4CN5CN(C4)C(=O)CCSC(C)(C)[C@H](NC(=O)[C@@H](CC(=O)O)NC(=O)[C@H](Cc4cccc6ccccc46)NC(=O)[C@@H]4CCCN4C3=O)C(=O)N[C@@H](CCSC)C(=O)N[C@@H](CCCCNC(=N)N)C(=O)N[C@@H](CC(=O)O)C(=O)N[C@@H](Cc3c[nH]c4ccccc34)C(=O)N[C@@H](CO)C(=O)N[C@@H]([C@@H](C)O)C(=O)N3CCC[C@H]3C(=O)N3C[C@H](O)C[C@H]3C(=O)N[C@@H](Cc3c[nH]c4ccccc34)C(=O)N[C@H](C(N)=O)CCSCCC5=O)NC(=O)CN(C)C2=O)C(C)C)cc1)C(C)C [Acetate salt of PDC_3] (I: [Sar][Sar][Sar][Sar][Sar][Sar][Sar][Sar][Sar][Sar]K[Sar]DCP[1Nal][dD][Pen]M[hArg]DWSTP[Hyp]W[hCys]-NH2 / II: V[Cit][PABC][NMeV]V[Dil][Dolaproine]-X1; lactam I:11-I:13; linker I:14-I:18-I:28 via TATA; linker I:N-II:N via X2) | 4.13 nM | – | – | – | – |

Source: patent publication US12539335B2, “Tricyclic polypeptide conjugated drug and use thereof” (CONJUSTAR (ZHUHAI) BIOLOGICS CO., LTD., priority 2021, dated 2026)
